Source: PubChem BioAssay AID686929 (Broad Institute, 2013)
Where “and” joins values, the source holds several entries; their conditions need not be identical. Equal entries are not always repeated. Calls of active or inactive are those of the source. How the calls were made is not given here.

How the values were obtained:
[1] = V. cholerae BH1578 lux luminescence induction, luxS cqsA deficient, confirmatory dose response (AID 686929); settings: V. cholerae BH1578 lux luminescence induction, 6 h
[2] = tested on: V. cholerae BH1578 lux luminescence induction, 6 h; assay: as above

SMILES	activation (light induction) ([1]; at 80 µM (top of the series))	activation (light induction) ([1]; at 100 µM (top of the series))	also measured
O=c1ncn(-c2ccccc2)c2ccccc12	4.58% (inactive)		
CC(C)(C)OC(=O)N1CCC(C(=O)Nc2nnc(-c3ccc4c(c3)OCCO4)o2)CC1		0.022% (inactive)	
Cc1ccc2cc3c(NC(=O)c4ccc(C)o4)nn(C)c3nc2c1		-0.007% (inactive)	
O=C(Nc1nnc(C2CCCC2)o1)C1CCCCC1		-0.004% (inactive)	
CCn1nnnc1/N=C/c1ccc(N2CCCCC2)cc1		0.106% (inactive)	
O=C(O)c1ccccc1Nc1cccc(Cl)c1	0.019% (inactive)		
O=C(CC1CCCCC1)Nc1nnc(-c2cccnc2)o1	-0.004% (inactive)		
O=C(Nc1nnc(-c2ccncc2)o1)C1CCC1		0.061% (inactive)	
C(=N\c1nnc(-c2ccc3c(c2)OCCO3)o1)/c1ccccc1		0.009% (inactive)	
Cn1nc(NC(=O)c2ccco2)c2cc3ccccc3nc21			AC40 [2]: 6.9 µM
O=c1ncn(Cc2ccc(Cl)cc2)c2ccccc12	0.035% (inactive)		
COc1ccc(-c2nnc(NC(=O)C3CCCCC3)o2)cc1			AC40 [2]: > 100 µM (inactive)
O=C(Cc1ccc(-c2ccccc2)cc1)NC1COC1		1.9% (inactive)	
Cn1ccc(NC(=O)c2ccco2)n1		0.065% (inactive)	
O=c1nc(Cc2ccccc2)n(-c2cccc(Cl)c2)c2ccccc12	0.573% (inactive)		
Cc1cccc(-n2cnc(=O)c3ccccc32)c1	6.74% (inactive)		
Cn1nc(NC(=O)c2ccco2)c2ccccc21		0.203% (inactive)	
O=C(Nc1nnc(-c2ccc3c(c2)OCCO3)o1)C1CC1		0.006% (inactive)	
O=C(Nc1nnc(-c2ccc3c(c2)OCCO3)o1)C1CCCCCC1			AC40 [2]: 11.8 µM
Cc1ccc2cc3c(NC(=O)c4ccccn4)nn(C)c3nc2c1		-0.008% (inactive)	
O=C(Nc1nnc(-c2cccc(Cl)c2)o1)C1CCCCC1	0.048% (inactive)		
CN1CCC(C(=O)Nc2nnc(-c3ccc4c(c3)OCCO4)o2)CC1		0.038% (inactive)	
COc1ccc(-n2cnc(=O)c3ccccc32)cc1Cl	0.017% (inactive)		

SMILES	activation (light induction) ([1]; at 80 µM (top of the series))	activation (light induction) ([1]; at 100 µM (top of the series))	also measured
COc1ccc2cc3c(NC(=O)c4ccco4)nn(C)c3nc2c1			AC40 [2]: 2.97 µM
COc1ccc(S(=O)(=O)Nc2nnc(-c3ccc4c(c3)OCCO4)o2)cc1		0.008% (inactive)	
Cn1nc(NC(=O)c2ccco2)c2cccnc21			AC40 [2]: 48.8 µM
Cc1nc(=O)c2ccccc2n1-c1cccc(Cl)c1	9.66% (inactive)		
O=C1C(=O)N(Cc2cccc(Cl)c2)c2ccccc21	0.001% (inactive)		
O=C(Cc1ccc(-c2ccccc2)cc1)NC1CNC1		0.02% (inactive)	
CCc1nc(=O)c2ccccc2n1-c1cccc(Cl)c1	0.156% (inactive)		
O=c1ncn(-c2ccc(F)c(Cl)c2)c2ccccc12	1.31% (inactive)		
c1ccc(CNc2nnc(-c3ccc4c(c3)OCCO4)o2)cc1		0.008% (inactive)	
O=c1ncn(-c2cc(Cl)cc(Cl)c2)c2ccccc12			AC40 [2]: > 80 µM (inactive)
O=C(CC1CCCCC1)Nc1nnc(-c2ccc3c(c2)CCCC3)o1			activation (light induction) ([1]; at 35 µM (top of the series)): 0.065% (inactive)
O=C(Nc1nnc(-c2ccc3c(c2)OCCO3)o1)C(F)(F)c1ccccc1		-0.005% (inactive)	
COc1ccc(-c2nnc(NC(C)=O)o2)cc1		0.061% (inactive)	
CCCCCCCCCC(=O)C(O)CC (configuration not stated)			AC40 [2]: 3.81 µM
Cn1cnc(=O)c2ccccc21	0.023% (inactive)		
O=C(Cc1ccc(-c2ccccc2)cc1)NC1CCC1			AC40 [2]: 1.74 µM
CC(C)c1ccc2cc3c(NC(=O)c4ccco4)nn(C)c3nc2c1		0.254% (inactive)	
CCn1nnnc1NC(C)c1ccc(N2CCCC2)cc1 (configuration not stated)		11.2% (inactive)	
Cc1ccc2cc3c(NC(=O)Cc4ccco4)nn(C)c3nc2c1		0.2% (inactive)	
CCCCCCCCCC(=O)[C@H](O)CC (racemic)			AC40 [2]: 11.5 µM
O=C(Nc1nnc(-c2ccc3c(c2)OCCO3)o1)C1CCCCC1			AC40 [2]: 5.45 µM and 1.91 µM
O=c1ncn(-c2ccc(Cl)c(Cl)c2)c2ccccc12	0.027% (inactive)		
O=c1ncn(-c2ccc(Cl)cc2)c2ccccc12	0.027% (inactive)		

SMILES	activation (light induction) ([1]; at 80 µM (top of the series))	activation (light induction) ([1]; at 100 µM (top of the series))	also measured
Cc1ccc2cc3c(NC(=O)c4ccoc4)nn(C)c3nc2c1	0.289% (inactive)		
O=C(Nc1nnc(-c2cccnc2)o1)C1CCCCC1		3.01% (inactive)	
O=C(Nc1nnc(-c2ccc(Cl)cc2)o1)C1CCCCC1	0.013% (inactive)		
O=c1ncn(-c2cccc(Cl)c2)c2cc(Cl)ccc12	0.003% (inactive)		
O=c1ncn(-c2cccc(Cl)c2)c2ccc(Cl)cc12	3.29% (inactive)		
O=S(=O)(Nc1nnc(-c2ccc3c(c2)OCCO3)o1)c1ccc(Cl)cc1		-0.005% (inactive)	
CN(C)/C=N/c1nnc(-c2ccc3c(c2)OCCO3)o1		0.03% (inactive)	
O=C(Cc1ccc(-c2ccccc2)cc1)N[C@@H]1CCOC1 (racemic)		12.2% (inactive)	
COc1cccc(-c2nnc(NC(=O)C3CCCCC3)o2)c1		0% (inactive)	
O=C(Nc1nnc(-c2cccnc2)o1)C1CCC1		0% (inactive)	
O=C(Nc1nnc(-c2ccc3c(c2)OCCO3)o1)C1CCC1		0.011% (inactive)	
O=C1C(=O)N(Cc2ccccc2Cl)c2ccccc21	0.156% (inactive)		
Cc1ccc2cc3c(NC(=O)c4ccco4)nn(C)c3nc2c1			AC40 [2]: 10.4 µM and 54.6 µM
NC(=O)c1ccccc1Nc1cccc(Cl)c1	0.018% (inactive)		
CC(C)(C)COC(=O)CSc1n[nH]c(=O)[nH]c1=O			AC40 [2]: 8.89 µM
Cc1ccc2c(c1)c(=O)ncn2-c1cccc(Cl)c1	2.5% (inactive)		
Cc1ccc2cc3c(NC(=O)c4cccs4)nn(C)c3nc2c1			AC40 [2]: > 80 µM (inactive)
CCn1nnnc1N		0.004% (inactive)	
Cc1cc(F)cc2nc3c(cc12)c(NC(=O)c1ccco1)nn3C			AC40 [2]: 83.3 µM
CCOC(=O)c1ccccc1Nc1cccc(Cl)c1	0.004% (inactive)		
Cc1cc2nc3c(cc2cc1F)c(NC(=O)c1ccco1)nn3C			AC40 [2]: 25.3 µM
CCn1nnnc1NCc1ccc(C(C)C)cc1			AC40 [2]: 0.923 µM
COc1cccc(-n2cnc(=O)c3ccccc32)c1	0.108% (inactive)		

SMILES	activation (light induction) ([1]; at 80 µM (top of the series))	activation (light induction) ([1]; at 100 µM (top of the series))	also measured
O=c1ncn(-c2cccc(Cl)c2)c2cccc(Cl)c12	0% (inactive)		
O=C(CSc1nc2ccccc2c(=O)[nH]1)NC1CCCCC1	0.005% (inactive)		
Cc1ccc2c(=O)ncn(-c3cccc(Cl)c3)c2c1	0.023% (inactive)		
Cc1ccc(-n2cnc(=O)c3ccccc32)cc1Cl	0.197% (inactive)		
O=c1nc(-c2ccccc2)n(-c2cccc(Cl)c2)c2ccccc12	-0.004% (inactive)		
COc1ccccc1-c1nnc(NC(=O)C2CCCCC2)o1			AC40 [2]: > 100 µM (inactive)
O=c1ncn(-c2cccc(F)c2)c2ccccc12	12.4% (inactive)		
CCc1ccc2cc3c(NC(=O)c4ccco4)nn(C)c3nc2c1			AC40 [2]: 52.1 µM
COC(=O)c1ccccc1Nc1cccc(Cl)c1	0.155% (inactive)		
O=c1[nH]cnc2ccccc12	0.008% (inactive)		
Cc1ccc2cc3c(NC(=O)C4CCCC4)nn(C)c3nc2c1			AC40 [2]: 73.5 µM
O=C(CSc1nc2c(c(=O)[nH]1)CCCC2)NC1CCCCC1	0.02% (inactive)		
O=C(Nc1nnc(-c2ccc3c(c2)CCCC3)o1)C1CCC1	-0.004% (inactive)		
NC(=O)c1ccccc1Nc1ccccc1	0.096% (inactive)		
O=c1ncn(-c2ccccc2Cl)c2ccccc12	0.05% (inactive)		
O=C(Nc1nnc(-c2ccc3c(c2)OCCO3)o1)C1CCCC1	0.417% (inactive)		
O=C(Nc1nnc(-c2ccccc2Cl)o1)C1CCCCC1		0.002% (inactive)	
COc1ccc2c(=O)ncn(-c3cccc(Cl)c3)c2c1	0.008% (inactive)		
Cc1cc(F)c2cc3c(NC(=O)c4ccco4)nn(C)c3nc2c1			AC40 [2]: > 100 µM (inactive)
Cc1ccc2cc3c(NC(=O)c4cc5ccccc5o4)nn(C)c3nc2c1		-0.011% (inactive)	
Cn1nc(NC(=O)c2ccco2)c2cc3ccc(C(C)(C)C)cc3nc21		-0.001% (inactive)	
CCC(C)(C)C(=O)Nc1nnc(-c2ccc3c(c2)OCCO3)o1	-0.001% (inactive)		
Cc1cc2cc3c(NC(=O)c4ccco4)nn(C)c3nc2cc1C			AC40 [2]: 45.7 µM
